Results reported in the supplement of paper PMC10307832.

What was measured:
Experiment in all cases: relative viability (nuclei count vs DMSO), 5 days (fraction); higher = more cells survive
Idelalisib + Lapatinib = compound: CC[C@H](Nc1ncnc2[nH]cnc12)c1nc2cccc(F)c2c(=O)n1-c1ccccc1 [Idelalisib] + CS(=O)(=O)CCNCc1ccc(-c2ccc3ncnc(Nc4ccc(OCc5cccc(F)c5)c(Cl)c4)c3c2)o1 [Lapatinib] (partner 2 µM)
Method in brief: (§1)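 Each reported value is a median over duplicate plates. It expresses relative viability: treated-well nuclei count divided by vehicle-well nuclei count. Lung cancer cell lines in 1536-well plates were dosed by pin tool a day after seeding, alone with one drug or with a fixed anchor-drug dose plus five library-drug doses (not always all listed) in √10 steps, and nuclei were counted after 5 days.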

Pemetrexed + Tozasertib = compound: Nc1nc2[nH]cc(CCc3ccc(C(=O)N[C@@H](CCC(=O)O)C(=O)O)cc3)c2c(=O)[nH]1 [Pemetrexed] + Cc1cc(Nc2cc(N3CCN(C)CC3)nc(Sc3ccc(NC(=O)C4CC4)cc3)n2)n[nH]1 [Tozasertib] (partner 0.1 µM)
Method in brief: as §1

Idelalisib + Olaparib = compound: CC[C@H](Nc1ncnc2[nH]cnc12)c1nc2cccc(F)c2c(=O)n1-c1ccccc1 [Idelalisib] + O=C(c1cc(Cc2n[nH]c(=O)c3ccccc23)ccc1F)N1CCN(C(=O)C2CC2)CC1 [Olaparib] (partner 8 µM)
Method in brief: as §1

Pemetrexed + Luminespib = compound: Nc1nc2[nH]cc(CCc3ccc(C(=O)N[C@@H](CCC(=O)O)C(=O)O)cc3)c2c(=O)[nH]1 [Pemetrexed] + CCNC(=O)c1noc(-c2cc(C(C)C)c(O)cc2O)c1-c1ccc(CN2CCOCC2)cc1 [Luminespib] (partner 0.01 µM)
Method in brief: as §1

| Cell Line | relative viability (Idelalisib + Lapatinib; first compound 0.04 µM) | relative viability (Idelalisib + Lapatinib; first compound 0.1265 µM) | relative viability (Idelalisib + Lapatinib; first compound 0.4 µM) | relative viability (Idelalisib + Lapatinib; first compound 1.265 µM) | relative viability (Idelalisib + Lapatinib; first compound 4 µM) | relative viability (Pemetrexed + Tozasertib; first compound 0.002 µM) | relative viability (Pemetrexed + Tozasertib; first compound 0.006325 µM) | relative viability (Pemetrexed + Tozasertib; first compound 0.02 µM) | relative viability (Pemetrexed + Tozasertib; first compound 0.06325 µM) | relative viability (Pemetrexed + Tozasertib; first compound 0.2 µM) | relative viability (Idelalisib + Olaparib; first compound 0.04 µM) | relative viability (Idelalisib + Olaparib; first compound 0.1265 µM) | relative viability (Idelalisib + Olaparib; first compound 0.4 µM) | relative viability (Idelalisib + Olaparib; first compound 1.265 µM) | relative viability (Idelalisib + Olaparib; first compound 4 µM) | relative viability (Pemetrexed + Luminespib; first compound 0.002 µM) | relative viability (Pemetrexed + Luminespib; first compound 0.006325 µM) | relative viability (Pemetrexed + Luminespib; first compound 0.02 µM) | relative viability (Pemetrexed + Luminespib; first compound 0.06325 µM) | relative viability (Pemetrexed + Luminespib; first compound 0.2 µM) |
| --- | --- | --- | --- | --- | --- | --- | --- | --- | --- | --- | --- | --- | --- | --- | --- | --- | --- | --- | --- | --- |
| BEN | 0.88 | 0.635 | 0.613 | 0.73 | 0.602 | 0.547 | 0.423 | 0.57 | 0.548 | 0.457 | 1.02 | 0.955 | 1.02 | 1.12 | 0.847 | 0.491 | 0.435 | 0.374 | 0.484 | 0.559 |
| CAL-12T | 0.672 | 0.7 | 0.616 | 0.471 | 0.501 | 0.337 | 0.276 | 0.329 | 0.286 | 0.277 | 0.767 | 0.823 | 0.796 | 0.852 | 0.75 | 0.307 | 0.352 | 0.38 | 0.363 | 0.557 |
| COR-L23 | 1.09 | 1.14 | 0.711 | 1.29 | 0.926 | 0.229 | 0.196 | 0.197 | 0.12 | 0.105 | 0.368 | 0.326 | 0.348 | 0.327 | 0.316 | 0.639 | 0.63 | 0.771 | 0.358 | 0.176 |
| COR-L 105 | 0.385 | 0.353 | 0.294 | 0.374 | 0.362 | 0.431 | 0.332 | 0.31 | 0.366 | 0.338 | 0.628 | 0.638 | 0.656 | 0.715 | 0.666 | 0.77 | 0.834 | 0.673 | 0.862 | 0.729 |
| EKVX | 0.21 | 0.234 | 0.184 | 0.201 | 0.186 | 0.373 | 0.398 | 0.37 | 0.367 | 0.263 | 0.756 | 0.915 | 0.755 | 0.884 | 0.74 | 0.968 | 0.876 | 0.977 | 0.816 | 0.784 |
| EMC-BAC-2 | 0.91 | 0.953 | 0.827 | 0.905 | 0.833 | 0.327 | 0.255 | 0.296 | 0.278 | 0.244 | 0.459 | 0.518 | 0.477 | 0.472 | 0.476 | 1.15 | 1.1 | 1.11 | 1.06 | 1.18 |
| EPLC-272H | 0.951 | 1.04 | 0.705 | 0.901 | 0.84 | 0.284 | 0.261 | 0.225 | 0.251 | 0.306 | 1.01 | 0.916 | 0.686 | 0.637 | 0.619 | 0.265 | 0.153 | 0.27 | 0.321 | 0.536 |
| H3255 | 0.297 | 0.283 | 0.258 | 0.233 | 0.203 | 0.653 | 0.707 | 0.754 | 0.709 | 0.555 | 0.567 | 0.555 | 0.534 | 0.573 | 0.513 | 0.714 | 0.799 | 0.93 | 0.852 | 0.844 |
| HARA | 0.891 | 0.982 | 0.651 | 0.844 | 0.656 | 0.13 | 0.0932 | 0.123 | 0.0911 | 0.0832 | 0.738 | 0.998 |  | 0.758 | 0.792 | 0.554 | 0.751 | 1.19 | 0.855 | 0.165 |
| HCC-15 | 0.828 | 0.847 | 0.818 | 0.983 | 0.894 | 0.431 | 0.394 | 0.497 | 0.407 | 0.205 | 0.743 | 0.583 | 0.699 | 0.799 | 0.707 | 0.454 | 0.391 | 0.475 | 0.406 | 0.23 |
| HCC-44 | 1.02 | 1.01 | 1 | 1.07 | 1.14 | 0.903 | 0.945 | 1.15 | 0.853 | 0.372 | 1.05 | 0.998 | 0.962 | 1.04 | 1.05 | 1.08 | 1.03 | 1.09 | 0.918 | 0.666 |
| HCC-827 | 0.225 | 0.191 | 0.176 | 0.178 | 0.157 | 0.377 | 0.414 | 0.441 | 0.44 | 0.335 | 0.667 | 0.613 | 0.612 | 0.571 | 0.491 | 0.541 | 0.633 | 0.856 | 0.724 | 0.382 |
| HOP-62 | 1 | 0.912 |  | 1.47 | 1.06 | 0.334 | 0.306 | 0.409 | 0.368 | 0.349 | 0.306 | 0.538 | 0.442 | 0.387 | 0.498 | 0.85 | 0.936 | 0.851 | 0.814 | 0.932 |
| LC-2-ad | 1.04 | 0.963 | 0.949 | 1.05 | 0.868 | 0.378 | 0.45 | 0.43 | 0.296 | 0.259 | 0.691 | 0.728 | 0.764 | 0.805 | 0.734 | 1.09 | 0.989 | 0.709 | 0.313 | 0.303 |
| LCLC-97TM1 | 0.913 | 1.28 |  | 1.08 | 0.602 | 0.184 | 0.245 | 0.315 | 0.254 | 0.284 | 0.328 | 0.349 | 0.324 | 0.347 | 0.378 | 0.906 | 0.74 | 0.81 | 0.761 | 0.65 |
| LK-2 | 1.03 | 0.98 | 0.63 | 0.978 | 0.965 | 0.191 | 0.148 | 0.176 | 0.197 | 0.165 | 0.874 | 0.631 |  | 0.983 | 0.609 | 0.179 | 0.181 | 0.187 | 0.165 | 0.208 |
